Measurements from patent US11007250B2, “Methods and kits for treating pain” (Duke University, priority 2017, dated 2021).

Key:
[1] = test system: naive mice; experiment: Basal pain in naive mice (von Frey test, spontaneous pain); type: in vivo, mouse; details: RMP1-14 5 μg, Nivolumab 10 μg
[2] = test system: spinal wide dynamic range (WDR) neurons; experiment: Extracellular recording of spinal WDR neurons in bone cancer rats in vivo; parameters: species or system rat; details: PD-L1 20 μg i.t., day 14; Nivolumab 10 μg i.t., day 8
Procedure: Rat bone cancer pain model. Tumor cells were extracted from the ascetic fluid of rats that received Walker 256 rat mammary gland carcinoma cells, and suspension of 1×10^8/ml tumor cells in PBS was prepared. The inoculation was performed as previously described (Yang, Y, et al. J. Neurosci., 2015, 35:7950-7963). Briefly, rats were anesthetized with sodium pentobarbital (50 mg/kg, intraperitoneal). The right leg was shaved, and the skin was disinfected with iodine tincture and 75% ethanol. A 22-gauge needle was inserted at the site of the intercondylar eminence of the right tibia and was then replaced with a 10 μl microinjection syringe containing a 4 μl suspension of tumor cells (4×10^5). The contents of the syringe were slowly injected into the tibia cavity. To prevent leakage of cells outside the bone, the injection site was sealed with bone wax. […]
Extracellular recording in rat spinal cord in vivo. […] The electrocardiogram was monitored, and the heart rate was maintained at 250-300/min. […] WDR neurons responding to innocuous stimulation and to a greater degree, noxious stimulation of the RF were analyzed in the present study. The recorded signals were amplified with a microelectrode amplifier (1800 A-M System, USA) and fed to computer via a CED 1401 interface for off-line analysis using the Spike 2 software (Cambridge Electronic Design, Cambridge, UK). […]

[3] = test system: melanoma-bearing mice; experiment: Mouse melanoma model: spontaneous pain, von Frey test, CPP; type: in vivo; details: MCI-4w
[4] = test system: DRG neurons and sciatic nerve fibers; experiment: Nivolumab binding in mouse DRG and sciatic nerve sections
Procedure: FIG. 10 (Supp. FIG. 2). […] Human IgG included as a control. *P<0.05, vs. human IgG/PD-L1, repeated measures Two-Way ANOVA, n=4 mice/group. Arrows indicate drug injections. Human IgG or monoclonal antibody injected 30 min prior to injection of PD-L1. BL, baseline. […] Arrows indicate nerve fibers. Data are mean s.e.m.
Immunohistochemistry in mouse and human tissues and quantification. After appropriate survival times, mice were deeply anesthetized with isoflurane and perfused through the ascending aorta with PBS, followed by 4% paraformaldehyde. After the perfusion, the L4-L5 spinal cord segments, L4-L5 DRGs, sciatic nerves, and melanoma tissues were removed and postfixed in the same fixative overnight. Fresh human DRGs (L4-L5) of 4 non-diseased donors from NDRI (National Disease Research Interchange) (Xu, Z Z, et al. 2015) and the attached spinal nerves were immediately fixed upon delivery in fresh 4% paraformaldehyde overnight. Spinal cord, DRG, and nerve tissue sections (10 or 14 μm) and free-floating spinal cord and skin sections (30 μm) were cut in a cryostat. […] The stained sections were examined with a Nikon fluorescence microscope, and images were captured with a CCD Spot camera. […]

[5] = test system: mice with LLC bone cancer; experiment: Bone cancer pain model, Lewis lung cancer (LLC) cells in tibia; type: in vivo, mouse; details: Nivolumab 10 mg/kg IV on day 0, 3, 7, 10, 14
Source text: (B) Cancer pain, as measured by mechanical pain sensitivity (paw withdrawal threshold) in von Frey test. (C) Mechanical allodynia (paw withdrawal frequency to a subthreshold filament, 0.4 g) in von Frey test. (D) Cold allodynia (lifting and licking time) in acetone test. (E) Heat hyperalgesia (paw withdrawal latency) in Hargreaves test. (B-E) n=9-11 mice in each group; Two-way ANOVA with Bonferroni's hoc-test; *P<0.05, compared with baseline; #P<0.05, compared with Saline group.

Nivolumab: FDA-approved fully humanized IgG4 monoclonal anti-PD-1 antibody, Bristol-Myers Squibb
effect on PD-L1's analgesic effects ([1]; antibody i.pl. 30 min prior to PD-L1 (5 μg, i.pl.)): blocked
duration of mechanical allodynia in naive mice ([1]; i.pl., sPD-1 5 μg): 5 h
mechanical allodynia in naive mice ([1]; i.pl., sPD-1 5 μg): marked mechanical allodynia
activity of WDR neurons in bone cancer rats [2]: enhanced activities of WDR neurons
mechanical allodynia in melanoma-bearing mice ([3]; sPD-1 5 μg i.pl., siRNA 2 μg peri-sciatic, Nivolumab 3-10 mg/kg i.v., RMP1-14 10 mg/kg i.v.): rapid, persistent, and dose-dependent mechanical allodynia
spontaneous pain (licking/flinching) in melanoma-bearing mice ([3]; sPD-1 5 μg i.pl., siRNA 2 μg peri-sciatic, Nivolumab 3-10 mg/kg i.v., RMP1-14 10 mg/kg i.v., SSG 5 μg i.pl.): marked spontaneous pain
mechanical allodynia in melanoma-bearing mice after local injection ([3]; intrathecal or intraplantar route): evoked mechanical allodynia
binding in Pd1 knockout mice ([4]; Pd1−/− mice): absent
binding in wild-type (WT) mouse tissue ([4]; WT mice): binding on DRG neurons and sciatic nerve fibers
cancer pain days after each treatment [5]: sustained beneficial effects on cancer pain relief
